Consider 42 compounds from patent US20250009745A1, “CDK INHIBITOR” (SHANGHAI QILU PHARMACEUTICAL RESEARCH AND DEVELOPMENT …, priority 2021, published 2025).

The target in one test is T1, CDK2 (Homo sapiens, UniProt P24941).
T1 construct: purchased Carna Company
As to the kind of experiment: CDK enzymology experiment in vitro, capillary mobility shift assay (MSA). In kind it is biochemical. As to conditions: read-out: CDK2 (nM) inhibitory IC50. The protocol:
(§1) CDK1/CDK2/CDK4/CDK6/CDK7/CDK9 were purchased from Carna Company; Carliper substrate CTD3/substrate 18/substrate 8 were purchased from Gil Biochemical Company; Dinaciclib/Palbociclib were purchased from Selleckchem Company; DMSO was purchased from Sigma Company; 384-well plates were purchased from Corning Company.
(§2) • (1) Preparation of 1×Kinase buffer. • (2) Preparation of compound concentration gradient: Test concentration of the test compound was started at 1 μM, 10 μM or 30 μM, 3-fold dilution, 10 concentrations, detected in duplicate. The test compound was diluted to a 100-fold final concentration with 100% DMSO solution in a 384 source plate. Liquid handler Echo 550 was used to transfer 250 nL of 100-fold final concentration of the compound to the target plate 384-well plate. […] The 384-well plate was centrifuged at 1000 rpm for 30 seconds, and shaken to mix uniformly. • (10) The conversion rate was read with Caliper EZ Reader.
(§3) Where, conversion %_sample is the readings of conversion rate of the sample; conversion %_min: the average value of negative control wells, representing the readings of conversion rate of wells without enzyme activity; conversion %_max: the average value of positive control wells, representing the readings of conversion rate of wells without compound inhibition.
(§4) Taking the log value of the concentration as the X-axis, and the percentage inhibition rate as the Y-axis, the dose-effect curve was fitted using the log(inhibitor) vs. response—Variable slope of the analysis software GraphPad Prism 5 so as to obtain the IC50 value of each compound on the enzyme activity.
(§5) Y=Bottom+(Top−Bottom)/(1+10^((Log IC50−X)*HillSlope)). Calculation formula: […]

The next test deals with T2, CDK4 (Homo sapiens, UniProt P11802).
T2 construct: purchased Carna Company
The description is as above. As to conditions: read-out: CDK4 (nM) inhibitory IC50. The class given is biochemical. As to the method: as §1, §2, §3, §4, §5

T2 sequence (P11802 whole entry): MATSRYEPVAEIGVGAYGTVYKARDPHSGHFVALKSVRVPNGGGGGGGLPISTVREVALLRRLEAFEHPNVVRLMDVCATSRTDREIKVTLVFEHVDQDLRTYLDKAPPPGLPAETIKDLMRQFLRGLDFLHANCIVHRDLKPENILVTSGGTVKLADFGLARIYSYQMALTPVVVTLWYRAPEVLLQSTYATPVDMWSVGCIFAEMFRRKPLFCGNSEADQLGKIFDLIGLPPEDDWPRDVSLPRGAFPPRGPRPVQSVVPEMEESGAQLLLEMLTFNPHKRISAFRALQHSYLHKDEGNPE
T2 sequence (P30281 whole entry partner): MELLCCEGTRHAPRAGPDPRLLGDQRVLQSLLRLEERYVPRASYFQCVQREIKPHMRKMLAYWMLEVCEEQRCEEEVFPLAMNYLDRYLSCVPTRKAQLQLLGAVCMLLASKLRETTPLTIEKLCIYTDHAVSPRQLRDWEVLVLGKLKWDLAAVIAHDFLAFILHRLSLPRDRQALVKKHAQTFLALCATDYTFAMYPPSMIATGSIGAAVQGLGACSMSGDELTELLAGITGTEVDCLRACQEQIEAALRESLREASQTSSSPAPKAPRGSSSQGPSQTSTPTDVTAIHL

Consider `Cn1cc(S(=O)(=O)N2CCC(Nc3ncc(C#N)c(C=C4CCCC4)n3)CC2)cn1` [Example 9, 4-(Cyclopentylidenemethyl)-2-((1-((1-methyl-1H-pyrazol-4-yl)sulfonyl)piperidin-4-yl)amino)pyrimidine-5-carbonitrile], for which the values for the IC50 at CDK2 and on CDK4 were 0.5 to 2.5 nM and 10 to 50 nM, respectively. Turning to `O=S(=O)(c1ccccn1)N1CCC(Nc2ncc(C(F)(F)F)c(O[C@H]3CCOC3)n2)CC1` [Compound 109], the IC50 (usually the midpoint of a concentration-inhibition curve) lay within 0.5 to 2.5 nM at CDK2 and 10 to 50 nM at CDK4. `CN(c1nc(NC2CCN(S(=O)(=O)c3cnn(C)c3)CC2)ncc1C#N)C1CCCC1` [Compound 39]: the values for the IC50 at CDK2 and at CDK4 were 0.5 to 2.5 nM and 2.5 to 10 nM, respectively.

For the compound `N#Cc1cnc(NC2CCN(S(=O)(=O)c3ccc(Br)cc3)CC2)nc1N[C@H]1CCOC1` [Compound 106], the IC50 fell in the range of 10 to 50 nM on CDK2 and 100 to 1000 nM on CDK4. On the same counts, the results for `Cn1cc(S(=O)(=O)N2CCC(Nc3ncc(C(F)(F)F)c(O[C@@H]4COC[C@@H]4O)n3)CC2)cn1` (relative stereo) [Compound 111] are 2.5 to 10 nM and 50 to 100 nM. For `Cn1cc(-c2ccc(S(=O)(=O)N3CCC(Nc4ncc(C#N)c(N[C@@H]5CCC[C@@H]5O)n4)CC3)cc2)cn1` [Compound 61] the same measures were 0.5 to 2.5 nM and 2.5 to 10 nM. On the same counts, the results for `Cn1cc(S(=O)(=O)N2CCC(Nc3ncc(C#N)c(NC(C)(C)C)n3)CC2)cn1` [Compound 42] are 10 to 50 nM and 10 to 50 nM. For the compound `Cn1cc(S(=O)(=O)N2CCC(Nc3ncc(C#N)c(N[C@@H]4CCOC4)n3)CC2)cn1` [Compound 43], the IC50 on CDK2 was in the range of 10 to 50 nM; at CDK4 it was 100 to 1000 nM. On the same counts, the results for `Cn1cc(S(=O)(=O)N2CCC(Nc3ncc(C#N)c(NC4CC(F)(F)C4)n3)CC2)cn1` [Compound 78] are 2.5 to 10 nM and 10 to 50 nM. For `O=S(=O)(c1ccc(C2=CCNCC2)cc1)N1CCC(Nc2ncc(C(F)(F)F)c(N[C@@H]3CCC[C@H]3O)n2)CC1` [Compound 102] the same measures were 0.5 to 2.5 nM and 2.5 to 10 nM. For `CS(=O)(=O)N1CCC(Nc2ncc(C#N)c(-c3ccccc3)n2)CC1` [Example 4, 2-((1-(Methylsulfonyl)piperidin-4-yl)amino)-4-phenylpyrimidine-5-carbonitrile] the same measures were 10 to 50 nM and 10 to 50 nM. Turning to `N#Cc1cnc(NC2CCN(S(=O)(=O)c3ccccn3)CC2)nc1NC1CCCC1` [Compound 36], the IC50 on CDK2 and on CDK4 was 2.5 to 10 nM in each case.

On to `Cn1cc(S(=O)(=O)N2CCC(Nc3ncc(C#N)c(N[C@@H]4CC[C@H](O)C4)n3)CC2)cn1` (single isomer, unassigned) [Example 13], for which the IC50 at CDK2 fell in the range of 2.5 to 10 nM; at CDK4 it was 10 to 50 nM. Take `C[C@@H](CO)Nc1nc(NC2CCN(S(=O)(=O)c3cnn(C)c3)CC2)ncc1C#N` [Compound 69]: the IC50 at CDK2 is 10 to 50 nM; on CDK4, 100 to 1000 nM. On the same counts, the results for `CN(C)[C@@H]1CCCC1Nc1nc(NC2CCN(S(=O)(=O)c3cnn(C)c3)CC2)ncc1C#N` (some centres unmarked) [Example 23] are 2.5 to 10 nM and 50 to 100 nM. On the same counts, the results for `O=S(=O)(c1cnn(S(=O)(=O)c2cn[nH]c2)c1)N1CCC(Nc2ncc(C(F)(F)F)c(O[C@H]3CCOC3)n2)CC1` [Example 26, (S)—N-(1-((1-((1H-Pyrazol-4-yl)sulfonyl)-1H-pyrazol-4-yl)sulfonyl)piperidin-4-yl)-4-((tetrahydrofuran-3-yl)oxy)-5-(trifluoromethyl)pyrimidin-2-amine] are under 0.5 nM and 2.5 to 10 nM.

As to `Cn1cc(S(=O)(=O)N2CCC(Nc3ncc(C#N)c(CC4CCCC4)n3)CC2)cn1` [Example 10, 4-(Cyclopentylmethyl)-2-((1-((1-methyl-1H-pyrazol-4-yl)sulfonyl)piperidin-4-yl)amino)pyrimidine-5-carbonitrile], the IC50 fell in the range of 2.5 to 10 nM at CDK2 and 10 to 50 nM at CDK4. For `Cn1cc(S(=O)(=O)N2CCC(Nc3ncc(C#N)c(NC4COC4)n3)CC2)cn1` [Compound 80] the same measures were 2.5 to 10 nM and 100 to 1000 nM. On the same counts, the results for `CC(C)(O)c1ccc(S(=O)(=O)N2CCC(Nc3ncc(C#N)c(NC4CCCC4)n3)CC2)cc1` [Example 24, 4-(Cyclopentylamino)-2-((1-((4-(2-hydroxypropan-2-yl)phenyl)sulfonyl)piperidin-4-yl)amino)pyrimidine-5-carbonitrile] are 0.5 to 2.5 nM and 2.5 to 10 nM.

On to `Cn1cc(-c2ccc(S(=O)(=O)N3CCC(Nc4ncc(C#N)c(N[C@@H]5CCOC5)n4)CC3)cc2)cn1` [Compound 95], for which the values for the concentration for half-maximal inhibition (IC50) at CDK2 and at CDK4 were 0.5 to 2.5 nM and 10 to 50 nM, respectively. In the case of `Cn1cc(S(=O)(=O)N2CCC(Nc3ncc(C#N)c(NC4CCCC4(F)F)n3)CC2)cn1` (centres unmarked) [Compound 37], the IC50 at CDK2 and on CDK4 was 2.5 to 10 nM throughout. Regarding `Cn1cc(S(=O)(=O)N2CCC(Nc3ncc(C#N)c(N[C@H]4CC[C@@H](O)C4)n3)CC2)cn1` (single isomer, unassigned) [Example 12], the half-maximal inhibitory concentration (IC50) on CDK2 is 2.5 to 10 nM; at CDK4, 10 to 50 nM. For `Cn1cc(S(=O)(=O)N2CCC(Nc3ncc(C(F)(F)F)c(OC4CCCC4)n3)CC2)cn1` [Compound 40] the same measures were 0.5 to 2.5 nM and 2.5 to 10 nM.

Regarding `N#Cc1cnc(NC2CCN(S(=O)(=O)c3ccc(C4=CCNCC4)cc3)CC2)nc1N[C@@H]1CCC[C@H]1O` [Compound 91], the IC50 on CDK2 was 0.5 to 2.5 nM; at CDK4, 2.5 to 10 nM. On the same counts, the results for `CN1CC[C@@H](Oc2nc(NC3CCN(S(=O)(=O)c4cnn(C)c4)CC3)ncc2C#N)C1` [Compound 73] are 50 to 100 nM and 100 to 1000 nM.

As for `N#Cc1cnc(NC2CCN(S(=O)(=O)c3ccc(-c4cn[nH]c4)cc3)CC2)nc1N[C@H]1CCOC1` [Compound 105], the IC50 on CDK2 fell in the range of 0.5 to 2.5 nM; on CDK4, 10 to 50 nM. With `C[C@H](CO)Nc1nc(NC2CCN(S(=O)(=O)c3cnn(C)c3)CC2)ncc1C#N` [Compound 70], the IC50 at CDK2 fell in the range of 10 to 50 nM; on CDK4 it was 50 to 100 nM. Take `Cn1cc(S(=O)(=O)N2CCC(Nc3cc(N[C@H]4CCOC4)c(C#N)cn3)CC2)cn1` [Compound 164]: the IC50 on CDK2 was 10 to 50 nM; at CDK4, 50 to 100 nM. For `CC(C)(O)Cn1cc(S(=O)(=O)N2CCC(Nc3ncc(C(F)(F)F)c(O[C@H]4CCOC4)n3)CC2)cn1` [Compound 156] the same measures were 0.5 to 2.5 nM and 2.5 to 10 nM. Regarding `Cn1cc(S(=O)(=O)N2CCC(Nc3ncc(C(F)(F)F)c(O[C@H]4CCOC4)n3)[C@@H](F)C2)cn1` (some centres unmarked) [Compound 120], the values for the IC50 on CDK2 and on CDK4 were 2.5 to 10 nM and 10 to 50 nM, respectively. With `CN1CC[C@@H](Nc2nc(NC3CCN(S(=O)(=O)c4cnn(C)c4)CC3)ncc2C#N)C1` [Compound 71], the IC50 on CDK2 was in the range of 2.5 to 10 nM; at CDK4, 10 to 50 nM. For `Cn1cc(S(=O)(=O)N2CCC(Nc3ncc(C#N)c(NC4CCOCC4)n3)CC2)cn1` [Compound 81] the same measures were 10 to 50 nM and 100 to 1000 nM. For the compound `Cn1cc(S(=O)(=O)N2CCC(Nc3ncc(C#N)c(N[C@H]4CC[C@H](O)C4)n3)CC2)cn1` (single isomer, unassigned) [Compound 52], the IC50 was in the range of 2.5 to 10 nM at CDK2 and 10 to 50 nM on CDK4. In the case of `Cn1cc(S(=O)(=O)N2CCC(Nc3ncc(C#N)c(O[C@H]4CCC[C@@H]4O)n3)CC2)cn1` (single isomer, unassigned) [Compound 66], the IC50 at CDK2 lay in the range of 2.5 to 10 nM; at CDK4, 10 to 50 nM. Turning to `Cn1cc(-c2ccc(S(=O)(=O)N3CCC(Nc4ncc(C#N)c(NC5(C)CCOC5)n4)CC3)cc2)cn1` (centres unmarked) [Compound 150], the results for the IC50 at CDK2 and at CDK4 were 0.5 to 2.5 nM and 2.5 to 10 nM, respectively. For the compound `CN1CC[C@H](Oc2nc(NC3CCN(S(=O)(=O)c4cnn(C)c4)CC3)ncc2C#N)C1` [Compound 74], the half-maximal inhibitory concentration (IC50) at CDK2 lay in the range of 10 to 50 nM; at CDK4, 50 to 100 nM. For `Cn1cc(S(=O)(=O)N2CCC(Nc3ncc(C#N)c(O[C@H]4CC[C@@H](O)C4)n3)CC2)cn1` (relative stereo) [Compound 58] the same measures were 0.5 to 2.5 nM and 10 to 50 nM.

On to `Cn1cc(S(=O)(=O)N2CCC(Nc3ncc(C#N)c(O[C@@H]4CCC[C@H]4O)n3)CC2)cn1` (relative stereo) [Compound 68], for which the values for the concentration for half-maximal inhibition (IC50) at CDK2 and on CDK4 were 2.5 to 10 nM and 10 to 50 nM, respectively.

Turning to `Cn1cc(S(=O)(=O)N2CC[C@@H](Nc3ncc(C(F)(F)F)c(O[C@H]4CCOC4)n3)[C@H](F)C2)cn1` [Compound 125], the IC50 at CDK2 lay within 0.5 to 2.5 nM; on CDK4, 10 to 50 nM. On the same counts, the results for `Cn1cc(S(=O)(=O)N2CCC(Nc3ncc(C#N)c(S(=O)(=O)C4CCCC4)n3)CC2)cn1` [Compound 97] are 0.5 to 2.5 nM and 10 to 50 nM. For `Cn1cc(S(=O)(=O)N2CCC(Nc3ncc(C#N)c(N[C@H]4CCC[C@H]4O)n3)CC2)cn1` [Compound 48] the same measures were 2.5 to 10 nM and 10 to 50 nM. Take `Cn1cc(-c2ccc(S(=O)(=O)N3CCC(Nc4ncc(C#N)c(N[C@@H]5CCC[C@H]5O)n4)CC3)cc2)cn1` [Compound 60]: the IC50 at CDK2 lay within 0.5 to 2.5 nM.
